One data set can be described thus: in vitro. The following applies: male, Sprague-Dawley, rat; for Concentration (μM) of analyte PEA, 0 min / Concentration of analyte I-9 / Concentration of analyte PEA / Concentration (μM) of analyte PEA, 10 min / Concentration (μM) of analyte PEA, 20 min / Concentration (μM) of analyte PEA, 30 min / Concentration (μM) of analyte PEA, 60 min / % Remaining of Initial (n = 1) / % Remaining of Initial (n = 1), 0 min / % Remaining of Initial (n = 1), 10 min / % Remaining of Initial (n = 1), 20 min / % Remaining of Initial (n = 1), 30 min / % Remaining of Initial (n = 1), 60 min / Concentration, analyte PEA: 1 μM. In a few lines:
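Test article (1 μM final) pre-equilibrated with intestinal S9 at 37 °C, then reaction started with cofactor cocktail; sampled at 0, 10, 20, 30 and 60 min and quenched in acidified acetonitrile. Prodrug and released PEA quantified by LC-MS/MS; half-life from single-phase exponential fit of percent remaining versus time 0.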

Data set [1] can be described thus: Plasma stability (37° C., pH 7.4), human. The format is in vitro ADME. The following applies: for half-life at 1 μM: both sexes, human, plasma, read-out: Half-life; for % Remaining of Initial (n = 1), 0 min / % Remaining of Initial (n = 1), 15 min / % Remaining of Initial (n = 1), 30 min / % Remaining of Initial (n = 1), 60 min / % Remaining of Initial (n = 1), 120 min: human plasma; for % Remaining of Initial (n = 1), 0 min: pH 7.4, 0 min; for % Remaining of Initial (n = 1), 15 min: pH 7.4, 15 min; for % Remaining of Initial (n = 1), 30 min: pH 7.4, 30 min; for % Remaining of Initial (n = 1), 60 min: pH 7.4, 60 min; for % Remaining of Initial (n = 1), 120 min: pH 7.4, 120 min; for % Remaining of Initial (n = 1): Human plasma. As to the method:
(§1) Studies were carried out in mixed-gender human plasma (Lot #GLP530-5), male Sprague-Dawley rat (Lot #RAT297944, RAT313140), male CD-1 mouse (Lot #MSE237700), and male Beagle dog (Lot #BGL87670, BGL82614), collected on sodium heparin. Plasma was adjusted to pH 7.4 prior to initiating the experiments. DMSO stocks were first prepared for the test articles. Aliquots of the DMSO solutions were dosed into 700 μL of plasma, which had been pre-warmed to 37° C., at a final test article concentration of 1 μM. […] Samples were stored at 4° C. until the end of the experiment. After the final time point was sampled, the plate was mixed and then centrifuged at 3,000 rpm for 10 minutes. Calibration standards were prepared in matched matrix. […] Analytical conditions are outlined in Appendix 8-1.
as §1, with “#AS1650-2),” for “#GLP530-5),”, “#RAT297944),” for “#RAT297944, RAT313140),”, “CD-I” for “CD-1”, “#BGL91384),” for “#BGL87670, BGL82614),”, “10-1.” for “8-1.”
Studies were carried out in mixed-gender human plasma (Lot #AS1650-2), male Sprague-Dawley rat (Lot #RAT297944), male CD-1 mouse (Lot #MSE237700), and male Beagle dog (Lot #BGL91384), collected on sodium heparin. Plasma was adjusted to pH 7.4 prior to initiating the experiments. DMSO stocks were first prepared for test articles. […] Samples were stored at 4° C. until the end of experiment. After the final time point was sampled, the plate was mixed and then centrifuged at 3,000 rpm for 10 minutes. Calibration standards were prepared in matched matrix. […] Analytical conditions are outlined in Appendix 13-1.
Studies were carried out in mixed-gender human plasma (Lot #AS 1650-2), male Sprague-Dawley rat (Lot #RAT320835), male CD-1 mouse (Lot #MSE260693), and 6 male Beagle dog (Lot #BGL91384), on sodium heparin. Plasma was adjusted to pH 7.4 prior to initiating the experiments. DMSO stocks were first prepared for the test articles. Aliquots of the DMSO solutions were dosed into 700 μL of plasma, which had been pre-warmed to 37° C., at a final test article concentration of 1 μM. […] Samples were stored at 4° C. until the end of the experiment. After the final time point was sampled, the plate was mixed and then centrifuged at 3,000 rpm for 10 minutes. Calibration standards were prepared in matched matrix. […] Analytical conditions are outlined in Appendix 17-1.

Where [2] appears, read: pH 7.4, human plasma, test article 1 μM, 37° C., pH 7.4.

One may read the microsomal CLint as the rate of metabolic loss divided by the concentration. What is called half-life is how long it takes for the measured level to halve.

On to `CCCCCCCCCCCCCCCC(=O)NCCOC(=O)CCC(=O)OCC(O)CO` (centres unmarked) [Compound I-9], for which, in “in vitro” (0 min), the “Concentration (μM) of analyte PEA, 0 min” value amounted to 0.034 µM; the “Concentration of analyte I-9” value came to 770 nM; the “Concentration of analyte PEA” value was 31 nM. Moreover, in the data set “in vitro” (10 min), the “Concentration (μM) of analyte PEA, 10 min” value worked out at 0.22 µM; the “Concentration of analyte I-9” value is 910 nM; the “Concentration of analyte PEA” value worked out at 88 nM. For the same compound, in “in vitro” (20 min), the “Concentration (μM) of analyte PEA, 20 min” value is 0.31 µM; the “Concentration of analyte I-9” value came out at 680 nM; the “Concentration of analyte PEA” value turned out to be 130 nM. Besides, in the data set “in vitro” (30 min), the “Concentration (μM) of analyte PEA, 30 min” value came to 0.36 µM; the “Concentration of analyte I-9” value was determined as 580 nM; the “Concentration of analyte PEA” value is 160 nM. In addition, in “in vitro” (60 min), the “Concentration (μM) of analyte PEA, 60 min” value was 0.39 µM; the “Concentration of analyte I-9” value is 380 nM; the “Concentration of analyte PEA” value came out at 240 nM. Further, in “in vitro” (s9, 0 h), the “% Remaining of Initial (n = 1)” value is reported as 100% and the “% Remaining of Initial (n = 1), 0 min” value came to 100%. In “in vitro” (s9, 10 min), the “% Remaining of Initial (n = 1)” value amounted to 119% and the “% Remaining of Initial (n = 1), 10 min” value is 45%. In the data set “in vitro” (s9, 20 min), the “% Remaining of Initial (n = 1)” value came to 88% and the “% Remaining of Initial (n = 1), 20 min” value is listed as 26%. In the data set “in vitro” (s9, 0.5 h), the “% Remaining of Initial (n = 1)” value came out at 75% and the “% Remaining of Initial (n = 1), 30 min” value is 15%. Further, in “in vitro” (s9, 1 h), the “% Remaining of Initial (n = 1)” value is on record as 49% and the “% Remaining of Initial (n = 1), 60 min” value is recorded as 3.6%. Also, the microsomal CLint at 1 μM in the data set “in vitro” (s9, CLint) was 125 µL/min/mg. For the same compound, in “in vitro” (s9, Half-life), the half-life at 1 μM is 55 min. The half-life at 1 μM in data set [1] (setting [2]) came to 3.8 min. In data set [1] (test article 1 μM, 37° C.), the “% Remaining of Initial (n = 1), 0 min” value came out at 100%; the “% Remaining of Initial (n = 1), 15 min” value is 6.4%; the “% Remaining of Initial (n = 1), 30 min” value came to 1.4%; the “% Remaining of Initial (n = 1), 60 min” value is less than 1.0%. In addition, the “% Remaining of Initial (n = 1), 120 min” value in data set [1] (test article 1 μM, 37° C.) is less than 1.0%.
With `CCCCCCCCCCCCCCCC(=O)NCCOC(=O)CCC(=O)OCC(COC(=O)CCC)OC(=O)CCC` (centres unmarked) [Compound I-11], the “Concentration (μM) of analyte PEA, 0 min” value in the data set “in vitro” (0 min) was 0 µM. In the data set “in vitro” (10 min), the “Concentration (μM) of analyte PEA, 10 min” value came out at 0.13 µM. The “Concentration (μM) of analyte PEA, 20 min” value in “in vitro” (20 min) was 0.24 µM. For the same compound, the “Concentration (μM) of analyte PEA, 30 min” value in the data set “in vitro” (30 min) was found to be 0.35 µM. The “Concentration (μM) of analyte PEA, 60 min” value in “in vitro” (60 min) amounted to 0.38 µM. Further, the “% Remaining of Initial (n = 1), 0 min” value in the data set “in vitro” (s9, 0 h) was 100%; in data set [1] (test article 1 μM, 37° C.), 100%. For the same compound, the “% Remaining of Initial (n = 1), 10 min” value in “in vitro” (s9, 10 min) was determined as 1.4%. The “% Remaining of Initial (n = 1), 20 min” value in the data set “in vitro” (s9, 20 min) was less than 1.0%. In addition, the “% Remaining of Initial (n = 1), 30 min” value in the data set “in vitro” (s9, 0.5 h) is on record as less than 1.0%; in data set [1] (test article 1 μM, 37° C.) it was 47%. Besides, the “% Remaining of Initial (n = 1), 60 min” value in the data set “in vitro” (s9, 1 h) was less than 1.0%; in data set [1] (test article 1 μM, 37° C.), 34%. Besides, in the data set “in vitro” (s9, CLint (mL/min/mg protein)), the microsomal CLint at 1 μM was determined as 425 µL/min/mg. Further, the half-life at 1 μM is 1.6 min in “in vitro” (s9, Half-life (min)) and 34 min in data set [1] (setting [2]). Besides, in data set [1] (test article 1 μM, 37° C.), the “% Remaining of Initial (n = 1), 15 min” value is on record as 67%. The “% Remaining of Initial (n = 1), 120 min” value in data set [1] (test article 1 μM, 37° C.) was found to be 10%.
For the compound `CCCCC/C=C\C/C=C\CCCCCCCC(=O)OCC(COC(=O)CCC(=O)OCCNC(=O)CCCCCCCCCCCCCCC)OC(=O)CCCCCCC/C=C\C/C=C\CCCCC` (centres unmarked) [Compound I-13], the “Concentration, analyte PEA” value came to 0 nM in “in vitro” (0 min); 20 nM in “in vitro” (10 min); 48 nM in “in vitro” (20 min); 64 nM in “in vitro” (30 min); 92 nM in “in vitro” (60 min). For the same compound, the “% Remaining of Initial (n = 1)” value in the data set “in vitro” (s9, 0 h) is on record as 100%; in “in vitro” (s9, 10 min) it was 80%; in the data set “in vitro” (s9, 20 min), 82%; in “in vitro” (s9, 0.5 h), 81%; in “in vitro” (s9, 1 h), 55%; in data set [1] (0 min, 1 μM), 100%. Moreover, the “% Remaining of Initial (n = 1)” value in data set [1] (15 min, 1 μM) is 104%; in data set [1] (30 min, 1 μM) it was 115%; in data set [1] (60 min, 1 μM) it was 95%; in data set [1] (120 min, 1 μM), 40%. Further, the microsomal CLint at 1 μM in “in vitro” (s9, CLint) is less than 11.6 µL/min/mg; in the data set “in vitro” (s9, CLint, calculated (in parentheses)), 8.59 µL/min/mg. In addition, the half-life at 1 μM in the data set “in vitro” (s9, Half-life) is more than 60 min; in “in vitro” (s9, Half-life, calculated (in parentheses)), 81 min; in data set [1] (pH 7.4, Human plasma, 1 μM), 120 min.

The record behind these values is patent US11547681B2, “N-acylethanolamide derivatives and uses thereof” (ELIEM THERAPEUTICS, INC., priority 2016, dated 2023).
